In data set [1] the target is T1, Wild type EGFR (Homo sapiens, UniProt P00533).
T1 construct: purchased Invitrogen PV3872
Put plainly: Kinase activity test (FRET), wild type EGFR. The format is biochemical. Conditions: wild type EGFR; read-out: Inhibitory activity of EGFR on kinase (IC50, nM) WT. The method, then: (§1) EGFR-TK catalyses transfer of one phosphate group of adenosine triphosphate (ATP) to polypeptide substrate, poly(Glu, Tyr)4:1, which is labeled with two fluorescent groups coumarin and fluorescein.
(§2) 2.5 μL of Test Compounds, 5 μL Kinase/Peptide Substrate Mixture, 2.5 μL ATP Solution were added into a 384-well plate, and the 10 μL of reaction system was shaken for 30 s and incubated at room temperature for 1 h. 5 μL of Development Solution was added and the 15 μL of reaction system was shaken for 30 s, and incubated at room temperature for 1 h. […] The inhibitory rates of the compounds at 7 concentration gradients were determined and the IC50 value for each compound was calculated by Origin 8.0 fitting curve.
(§3) 10 concentration gradients from 5.1×10^−11 mol/L to 1.0×10^−6 mol/L were set for all compounds to be tested.
(§4) Compounds were diluted in DMSO for three times from 5.1×10^−9 M to 1×10^−4 M. 4 μL of the compound was dissolved in 96 μL of water to obtain a 4× compound solution. […] The 10 μL kinase reaction consisted of 2.5 μL compound solution, 5 μL kinase/peptide mix, 2.5 μL ATP solution. […] 5 μL of phosphorylated peptide solution, instead of the kinase/peptide mixture, was used as a 100% phosphorylation control. […] The plates were thoroughly mixed and incubated at room temperature for 1.5 hours. 5 μL of Development Solution was added into each well and then incubated for another 1 hour at room temperature, unphosphorylated peptides were cleaved during this period. Finally, 5 μL Stop Reagent was added to quench the reaction. The plates were measured with EnVision Multilabel Reader (Perkin Elmer). The experimental data were calculated using GraphPad Prism version 4.0. Each experiment was repeated more than 3 times.

In data set [2] the target is T2, EGFR-L858R/T790M (Homo sapiens, UniProt P00533, L858R/T790M).
T2 construct: purchased Invitrogen PV4879
Put plainly: Kinase activity test (FRET), EGFR T790M/L858R. The data set is classed as biochemical. As to conditions: EGFR T790M/L858R; read-out: Inhibitory activity of EGFR on kinase (IC50, nM) T790M/L858R. The method, then:
as §1, §2, §3, §4

Data set [3] concerns A431 cells (EGFR wild type). Put plainly: Inhibitory activity on cell proliferation, A431. The format is cell-based. As to conditions: Homo sapiens, A-431; A431, 72 hours; read-out: Inhibitory activity on proliferation of cells (IC50, μM) A431. The method, then:
(§5) Cell proliferation activity was assessed by MTS assay. Cells were exposed to processing conditions for 72 hours and the number of cells used in each experiment for each cell line was adjusted based on absorbance values (absorbance values at 490 nm, 1.3-2.2). Six concentration gradients (0.1 nM-10 μM) were set for the compounds to be tested, wherein at least 6 sets of parallel controls for each concentration were used.
(§6) H1975, A431 cells were cultured in corresponding media, and cells were passaged at least twice after resuscitation and then used for experiments. Cells at Log phase were trypsinized and resuspended in culture medium. H1975 (1000 cells per well), A431 (2000 cells per well) were seeded in 96-well plates in a volume of 100 μL; and 6 sets of parallel controls and 7 columns were set. The plate was placed in a 37° C. 5% CO2 incubator overnight. Compounds were dissolved in DMSO to a concentration of […], and then the concentration was gradually diluted to 10 μM, 1 μM, 0.1 μM, 0.01 μM, 0.001 μM, 0.0001 μM per liter, respectively. 2 μL of the compound solution was added to 998 μL of medium, and the mixture was thoroughly mixed. 100 μL of the mixture was added to a 96-well plate. […] After culturing for 68 hours, 20 μL of MTT (5 mg/mL) was added. After 4 hours, the supernatant was discarded and 150 μL of DMSO was added. After shaking for 10 minutes, the plate was read with Synergy HT (Bio TeK) (OD490). Data were calculated using GraphPad Prism version 4.0 and IC50 values were obtained using a non-linear regression model of dose response curve.

Data set [4] deals with H1975 cells (EGFR L858R/T790M). Put plainly: Inhibitory activity on cell proliferation, H1975. The format is cell-based. Conditions: Homo sapiens, NCI-H1975; H1975, 72 hours; read-out: Inhibitory activity on proliferation of cells (IC50, μM) H1975. The procedure: as §5, §6
Data set [5] in a line: Determination of solubility in water (PBS 20 mM, pH 6.8). The format is physicochemical. Conditions: PBS buffer, aqueous buffer, thermodynamic from solid; pH 6.8, 20 mM PBS; read-out: Solubility (pH 6.8, g/mL). The procedure:
The suspension was filtered through a 0.22 μm PVDF filter, and then diluted to an appropriate concentration with methanol (v=50%) and PBS (v=50%), and the absorbance was measured by a UV spectrophotometer. About 3 mg of compound was accurately weighed, and methanol was added for preparing a stock solution of 1 mg/mL. The above stock solution was taken and prepared into a solution at concentrations of 0.05, 0.04, 0.03, 0.02 and 0.01 mg/mL, respectively, PBS solution (v=50%) was added and the absorbance value was measured. Concentration c (mg/mL) as horizontal ordinate vs absorbance A as longitudinal coordinate was plotted, and a line was fitted for obtaining a standard curve (correlation coefficient greater than 0.998). The solubility of a compound in water was calculated from the standard curve.

Values after ≈ are worked out from the molar mass of the structure shown.

T2 sequence (P00533 25-1210 T790M/L858R): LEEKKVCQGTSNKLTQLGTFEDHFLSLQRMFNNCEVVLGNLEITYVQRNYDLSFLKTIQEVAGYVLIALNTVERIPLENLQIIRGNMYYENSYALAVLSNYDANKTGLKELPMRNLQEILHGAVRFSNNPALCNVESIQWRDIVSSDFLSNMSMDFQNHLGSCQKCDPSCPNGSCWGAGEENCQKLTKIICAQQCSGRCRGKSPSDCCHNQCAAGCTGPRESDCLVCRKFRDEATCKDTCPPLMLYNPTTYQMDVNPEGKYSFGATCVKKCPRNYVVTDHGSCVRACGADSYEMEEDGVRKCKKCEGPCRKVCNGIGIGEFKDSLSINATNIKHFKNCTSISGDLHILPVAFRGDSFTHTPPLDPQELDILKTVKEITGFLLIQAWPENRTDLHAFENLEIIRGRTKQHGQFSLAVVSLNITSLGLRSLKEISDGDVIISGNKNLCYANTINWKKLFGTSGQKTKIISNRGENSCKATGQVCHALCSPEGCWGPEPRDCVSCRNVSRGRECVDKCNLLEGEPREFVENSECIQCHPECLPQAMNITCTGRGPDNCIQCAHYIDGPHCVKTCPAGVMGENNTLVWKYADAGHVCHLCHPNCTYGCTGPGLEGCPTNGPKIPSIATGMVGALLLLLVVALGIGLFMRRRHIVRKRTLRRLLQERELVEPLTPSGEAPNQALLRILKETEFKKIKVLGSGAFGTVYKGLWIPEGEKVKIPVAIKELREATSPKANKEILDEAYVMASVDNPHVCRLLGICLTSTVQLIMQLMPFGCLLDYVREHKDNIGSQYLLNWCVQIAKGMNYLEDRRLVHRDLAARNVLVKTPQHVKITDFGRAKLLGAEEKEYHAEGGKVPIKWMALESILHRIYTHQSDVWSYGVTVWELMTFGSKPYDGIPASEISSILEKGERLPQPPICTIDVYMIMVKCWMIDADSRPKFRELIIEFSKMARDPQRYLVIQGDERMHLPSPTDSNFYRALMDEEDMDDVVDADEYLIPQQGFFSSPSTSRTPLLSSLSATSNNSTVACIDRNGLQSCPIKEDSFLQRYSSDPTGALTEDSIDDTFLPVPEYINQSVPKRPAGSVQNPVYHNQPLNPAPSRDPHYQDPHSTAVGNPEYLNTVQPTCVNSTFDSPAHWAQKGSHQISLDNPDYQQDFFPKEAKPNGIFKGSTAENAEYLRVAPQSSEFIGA
T1 sequence (P00533 25-1210): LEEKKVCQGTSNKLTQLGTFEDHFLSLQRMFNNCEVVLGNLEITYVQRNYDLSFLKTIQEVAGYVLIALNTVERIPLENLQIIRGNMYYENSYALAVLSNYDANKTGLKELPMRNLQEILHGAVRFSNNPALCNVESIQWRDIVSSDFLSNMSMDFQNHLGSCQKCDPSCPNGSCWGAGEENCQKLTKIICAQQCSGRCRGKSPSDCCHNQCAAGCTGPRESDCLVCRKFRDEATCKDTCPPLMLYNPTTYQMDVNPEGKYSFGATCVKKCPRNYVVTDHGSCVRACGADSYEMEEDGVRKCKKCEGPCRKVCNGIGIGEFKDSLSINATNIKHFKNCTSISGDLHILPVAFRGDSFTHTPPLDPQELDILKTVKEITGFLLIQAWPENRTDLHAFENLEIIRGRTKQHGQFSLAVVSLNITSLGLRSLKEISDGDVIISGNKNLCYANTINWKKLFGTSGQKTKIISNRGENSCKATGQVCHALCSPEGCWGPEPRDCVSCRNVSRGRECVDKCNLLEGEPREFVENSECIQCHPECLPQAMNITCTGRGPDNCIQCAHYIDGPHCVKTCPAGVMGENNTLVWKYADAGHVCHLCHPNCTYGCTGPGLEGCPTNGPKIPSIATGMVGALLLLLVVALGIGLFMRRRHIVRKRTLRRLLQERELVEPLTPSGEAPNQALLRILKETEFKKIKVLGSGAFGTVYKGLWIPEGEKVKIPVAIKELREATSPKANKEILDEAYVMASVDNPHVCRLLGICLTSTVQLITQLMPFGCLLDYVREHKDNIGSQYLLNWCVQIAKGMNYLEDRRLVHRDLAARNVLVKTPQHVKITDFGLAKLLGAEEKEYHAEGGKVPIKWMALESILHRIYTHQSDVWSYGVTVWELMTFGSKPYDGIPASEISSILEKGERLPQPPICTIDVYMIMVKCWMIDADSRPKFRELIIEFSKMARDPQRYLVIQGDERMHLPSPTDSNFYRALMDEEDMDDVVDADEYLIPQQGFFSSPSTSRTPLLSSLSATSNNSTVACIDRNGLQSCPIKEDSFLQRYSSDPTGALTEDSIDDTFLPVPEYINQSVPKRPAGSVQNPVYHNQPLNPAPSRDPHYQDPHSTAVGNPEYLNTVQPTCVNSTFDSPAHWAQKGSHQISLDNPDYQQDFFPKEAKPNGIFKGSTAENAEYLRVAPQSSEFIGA

As for `C=CC(=O)Nc1cccc(-n2c(=O)c(C(C)C)nc3cnc(Nc4ccc(N5CCN(C)CC5)cc4)nc32)c1` [Compound 13, N-(3-(6-isopropyl-2-((4-(4-methyl-1-piperazinyl)phenyl)amino)-7-oxo-8(7H)-pteridinyl)phenyl)acrylamide], the IC50 in data set [1] came to 4.2 nM; in data set [2] it was 5.7 nM; in data set [3], 1.48 µM; in data set [4], 0.046 µM. In data set [5], the solubility was determined as 8.9 µg/mL (≈ 17 µM).
For `C=CC(=O)N1CCC[C@@H](Cn2c(=O)cnc3cnc(Nc4ccc(N5CCN(C)CC5)cc4OC)nc32)C1` [Compound 16, (R)-8-((1-acryloyl-3-piperidinyl)methyl)-2-((2-methoxy-4-(4-methyl-1-piperazinyl)phenyl)amino)-7(8H)-pteridinone], in that order: 4700 nM, above 10000 nM, above 10 µM, above 10 µM and 956 µg/mL (≈ 1840 µM).
In the same order, the values of `C=CC(=O)N1CCC[C@H](Cn2c(=O)cnc3cnc(Nc4ccc(N5CCN(C)CC5)cc4OC)nc32)C1` [Compound 17] are 2190 nM, 191 nM, above 10 µM, 1.42 µM and 957 µg/mL (≈ 1850 µM).
In the same order, the values of `C=CC(=O)Nc1cccc(-n2c(=O)cnc3cnc(Nc4ccc(N(C)CCN(C)C)cc4OC)nc32)c1` [Compound 18, N-(3-(2-((4-((2-(dimethylamino)ethyl)(methyl)amino)-2-methoxyphenyl)amino)-7-oxo-8(7H)-pteridinyl)phenyl)acrylamide] are 47 nM, 1 nM, 1.66 µM, 0.06 µM and 208 µg/mL (≈ 405 µM).
Take `C=CC(=O)Nc1cccc(-n2c(=O)c(C(C)C)nc3cnc(Nc4ccc(N(C)CCN(C)C)cc4OC)nc32)c1` [Compound 19, N-(3-(2-((4-((2-(dimethylamino)ethyl)(methyl)amino)-2-methoxyphenyl)amino)-6-isopropyl-7-oxo-8(71-1)-pteridinyl)phenyl)acrylamide]: the IC50 in data set [1] amounted to 174 nM; in data set [2] it was 14.1 nM; in data set [3] it was 3.41 µM; in data set [4], 1.16 µM. In addition, the solubility in data set [5] was determined as 90.7 µg/mL (≈ 163 µM).
In the same order, the values of `C=CC(=O)Nc1cccc(-n2c(=O)c(-c3ccccc3)nc3cnc(Nc4ccc(N(C)CCN(C)C)cc4OC)nc32)c1` [Compound 20, N-(3-(2-((4-((2-(dimethylamino)ethyl)(methyl)amino)-2-methoxyphenyl)amino)-7-oxo-6-phenyl-8(7H)-pteridinyl)phenyl)acrylamide] are 15 nM, 1.3 nM, 6 µM, 0.04 µM and 7.4 µg/mL (≈ 12.5 µM).
For `C=CC(=O)N1CCC[C@@H](Cn2c(=O)c(C(C)C)nc3cnc(Nc4ccc(N5CCN(C)CC5)cc4OC)nc32)C1` [Compound 21, (R)-8-((1-acryloyl-3-piperidinyl)methyl)-6-isopropyl-2-((2-methoxy-4-(4-methyl-1-piperazinyl)phenyl)amino)-7(8H)-pteridinone], in that order: 2880 nM, 251 nM, above 10 µM, 4.49 µM and 72.2 µg/mL (≈ 129 µM).
Consider `C=CC(=O)N1CCC[C@@H](n2c(=O)cnc3cnc(Nc4ccc(N5CCN(C)CC5)cc4OC)nc32)C1` [Compound 22], for which the IC50 is above 10000 nM in data set [1], 6900 nM in data set [2], above 10 µM in data set [3] and above 10 µM in data set [4]. Moreover, the solubility in data set [5] came out at 3230 µg/mL (≈ 6410 µM).
Take `C=CC(=O)Nc1cc(Nc2ncc3nc(C(C)C)c(=O)n(C)c3n2)c(OC)cc1N(C)CCN(C)C` [Compound 23]: the IC50 in data set [1] worked out at 1730 nM; in data set [2], 939 nM; in data set [3], 3.2 µM; in data set [4] it was 1.85 µM. The solubility in data set [5] came out at 1690 µg/mL (≈ 3410 µM).
In the same order, the values of `C=CC(=O)N1CC[C@H](n2c(=O)c(C(C)C)nc3cnc(Nc4ccc(N5CCN(C)CC5)c(C)c4)nc32)C1` [Compound 24, (S)-8-(1-acryloyl-3-pyrrolidinyl)-6-isopropyl-2-((3-methyl-4-(4-methyl-1-piperazinyl)phenyl)amino)-7(8H)-pteridinone] are 700 nM, 576 nM, 3.1 µM, 2.49 µM and 2920 µg/mL (≈ 5650 µM).
In the same order, the values of `C=CC(=O)N1CC[C@H](n2c(=O)c(-c3ccccc3)nc3cnc(Nc4ccc(N5CCN(C)CC5)c(C)c4)nc32)C1` [Compound 25, (S)-8-(1-acryloyl-3-pyrrolidinyl)-2-((3-methyl-4-(4-methyl-1-piperazinyl)phenyl)amino)-6-phenyl-7(8H)-pteridinone] are 65.2 nM, 1.5 nM, 1.75 µM, 0.016 µM and 56.7 µg/mL (≈ 103 µM).
For `C=CC(=O)N1CC[C@H](n2c(=O)c(C(C)C)nc3cnc(Nc4ccc(N5CCN(C)CC5)cc4OC)nc32)C1` [Compound 26, (S)-8-(1-acryloyl-3-pyrrolidinyl)-6-isopropyl-2-((2-methoxy-4-(4-methyl-1-piperazinyl)phenyl)amino)-7(8H)-pteridinone], in that order: 1300 nM, 559 nM, 9.5 µM, 3.23 µM and 10500 µg/mL (≈ 19700 µM).
On to `C=CC(=O)N1CC[C@H](n2c(=O)c(-c3ccccc3)nc3cnc(Nc4ccc(N5CCN(C)CC5)cc4OC)nc32)C1` [Compound 27, (S)-8-(1-acryloyl-3-pyrrolidinyl)-2-((2-methoxy-4-(4-methyl-1-piperazinyl)phenyl)amino)-6-phenyl-7(8H)-pteridinone], for which the IC50 in data set [1] turned out to be 53.7 nM; in data set [2] it was 3.8 nM; in data set [3] it was 1.85 µM; in data set [4], 0.116 µM. For the same compound, in data set [5], the solubility turned out to be 264 µg/mL (≈ 465 µM).
For the compound `COc1cc(N2CCN(C)CC2)ccc1Nc1ncc2nc(C(C)C)c(=O)n([C@H]3CCN(C(=O)/C=C/CN(C)C)C3)c2n1` [Compound 28], the IC50 in data set [1] is above 10000 nM; in data set [2], above 10000 nM; in data set [3], above 10 µM; in data set [4], 8.38 µM. Moreover, the solubility in data set [5] came out at 3970 µg/mL (≈ 6730 µM).
